Assay results as given in PMC5580309, “Molecular-scale features that govern the effects of O-glycosylation on a carbohydrate-binding module” (Chemical Science, 2015).
Bridge positions count the residues as written; N and C are the ends. Peptide text beside a SMILES is read from it. * marks the point of attachment. X2 = OC[C@H]1O[C@H](O[C@H]2[C@@H](O)[C@H](O)[C@@H](CO)O[C@@H]2*)[C@@H](O)[C@@H](O)[C@@H]1O; αMan = OC[C@H]1O[C@H](*)[C@@H](O)[C@@H](O)[C@@H]1O; βGal = OC[C@H]1O[C@@H](*)[C@H](O)[C@@H](O)[C@H]1O

Target: T1, thermolysin (Bacillus thermoproteolyticus, UniProt P00800)
T1 sequence (P00800 233-548): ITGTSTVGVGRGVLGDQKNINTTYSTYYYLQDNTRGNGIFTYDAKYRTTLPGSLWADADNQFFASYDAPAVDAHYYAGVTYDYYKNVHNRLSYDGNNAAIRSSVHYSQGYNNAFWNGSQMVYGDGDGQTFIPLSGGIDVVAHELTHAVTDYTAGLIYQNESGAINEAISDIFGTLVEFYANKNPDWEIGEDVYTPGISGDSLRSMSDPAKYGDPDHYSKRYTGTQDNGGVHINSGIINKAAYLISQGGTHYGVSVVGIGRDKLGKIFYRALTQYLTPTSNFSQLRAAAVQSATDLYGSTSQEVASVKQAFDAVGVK
Assay: Proteolytic stability: half-life to thermolysin degradation
Type: in vitro ADME
Conditions: for Change in Half-Life to Thermolysin Degradation: glyco-variant minus its corresponding unglycosylated CBM (e.g. 2-1), *** not used in the correlation plot; for half-life: thermolysin (isolated protease), thermolysin degradation, mean of three trials ± SD, procedures as described previously (ESI ref 18)
Method: All error bars reported are standard deviations of data achieved from three separate trials.
cellulose that were determined in accordance with our procedures as described previously 18.
The results are presented as mean of three trials ± SD. *Denotes an averaged value of four trials

SMILES	Change in Half-Life to Thermolysin Degradation [min]	half-life [min]
CC[C@H](C)[C@@H]1NC(=O)CNC(=O)CNC(=O)[C@@H](NC(=O)[C@H](CCC(N)=O)NC(=O)CNC(=O)[C@H](Cc2ccc(O)cc2)NC(=O)[C@H](Cc2c[nH]cn2)NC(=O)[C@@H](NC(=O)[C@H](CCC(N)=O)NC(=O)[C@@H](N)[C@@H](C)O)[C@@H](C)O[C@H]2O[C@H](CO)[C@@H](O)[C@H](O)[C@@H]2O)CSSC[C@@H]2NC(=O)[C@H]([C@@H](C)O)NC(=O)[C@H]([C@@H](C)O)NC(=O)CNC(=O)[C@H](CO)NC(=O)[C@H](C)NC(=O)[C@H](CSSC[C@@H](C(=O)N[C@@H](CC(C)C)C(=O)O)NC(=O)[C@H](CCC(N)=O)NC(=O)[C@H](CO)NC(=O)[C@H](Cc3ccc(O)cc3)NC(=O)[C@H](Cc3ccc(O)cc3)NC(=O)[C@@H]3CCCN3C(=O)[C@H](CC(N)=O)NC(=O)[C@H](CC(C)C)NC(=O)[C@H](C(C)C)NC(=O)[C@H](CCC(N)=O)NC2=O)NC(=O)[C@H](C(C)C)NC(=O)[C@H]([C@@H](C)O)NC(=O)[C@@H]2CCCN2C(=O)CNC(=O)[C@H](CO)NC(=O)[C@H](Cc2ccc(O)cc2)NC(=O)CNC1=O [CBM variant 13] (H-TQT(αMan)HYGQCGGIGYSGPTVCASGTTCQVLNPYYSQCL-OH; disulfide 8-25, 19-35)	46.8	68.4 ± 10.8
CC[C@H](C)[C@@H]1NC(=O)CNC(=O)CNC(=O)[C@@H](NC(=O)[C@H](CCC(N)=O)NC(=O)CNC(=O)[C@H](Cc2ccc(O)cc2)NC(=O)[C@H](Cc2c[nH]cn2)NC(=O)[C@H](CO)NC(=O)[C@H](CCC(N)=O)NC(=O)[C@@H](N)[C@@H](C)O)CSSC[C@@H]2NC(=O)[C@H]([C@@H](C)O)NC(=O)[C@H]([C@@H](C)O)NC(=O)CNC(=O)[C@H](CO)NC(=O)[C@H](C)NC(=O)[C@H](CSSC[C@@H](C(=O)N[C@@H](CC(C)C)C(=O)O)NC(=O)[C@H](CCC(N)=O)NC(=O)[C@H](CO)NC(=O)[C@H](Cc3ccc(O)cc3)NC(=O)[C@H](Cc3ccc(O)cc3)NC(=O)[C@@H]3CCCN3C(=O)[C@H](CC(N)=O)NC(=O)[C@H](CC(C)C)NC(=O)[C@H](C(C)C)NC(=O)[C@H](CCC(N)=O)NC2=O)NC(=O)[C@H](C(C)C)NC(=O)[C@H]([C@@H](C)O)NC(=O)[C@@H]2CCCN2C(=O)CNC(=O)[C@H](CO)NC(=O)[C@H](Cc2ccc(O)cc2)NC(=O)CNC1=O [CBM variant 1] (H-TQSHYGQCGGIGYSGPTVCASGTTCQVLNPYYSQCL-OH; disulfide 8-25, 19-35)	–	13.8 ± 1.2
CC[C@H](C)[C@@H]1NC(=O)CNC(=O)CNC(=O)[C@@H](NC(=O)[C@H](CCC(N)=O)NC(=O)CNC(=O)[C@H](Cc2ccc(O)cc2)NC(=O)[C@H](Cc2c[nH]cn2)NC(=O)[C@H](CS[C@H]2O[C@H](CO)[C@@H](O)[C@H](O)[C@@H]2O)NC(=O)[C@H](CCC(N)=O)NC(=O)[C@@H](N)[C@@H](C)O)CSSC[C@@H]2NC(=O)[C@H]([C@@H](C)O)NC(=O)[C@H]([C@@H](C)O)NC(=O)CNC(=O)[C@H](CO)NC(=O)[C@H](C)NC(=O)[C@H](CSSC[C@@H](C(=O)N[C@@H](CC(C)C)C(=O)O)NC(=O)[C@H](CCC(N)=O)NC(=O)[C@H](CO)NC(=O)[C@H](Cc3ccc(O)cc3)NC(=O)[C@H](Cc3ccc(O)cc3)NC(=O)[C@@H]3CCCN3C(=O)[C@H](CC(N)=O)NC(=O)[C@H](CC(C)C)NC(=O)[C@H](C(C)C)NC(=O)[C@H](CCC(N)=O)NC2=O)NC(=O)[C@H](C(C)C)NC(=O)[C@H]([C@@H](C)O)NC(=O)[C@@H]2CCCN2C(=O)CNC(=O)[C@H](CO)NC(=O)[C@H](Cc2ccc(O)cc2)NC(=O)CNC1=O [CBM variant 15] (H-TQC(αMan)HYGQCGGIGYSGPTVCASGTTCQVLNPYYSQCL-OH; disulfide 8-25, 19-35)	1.2	12 ± 1.8
CC[C@H](C)[C@@H]1NC(=O)CNC(=O)CNC(=O)[C@@H](NC(=O)[C@H](CCC(N)=O)NC(=O)CNC(=O)[C@H](C)NC(=O)[C@H](Cc2c[nH]cn2)NC(=O)[C@H](CO[C@H]2O[C@H](CO)[C@@H](O)[C@H](O)[C@@H]2O[C@H]2O[C@H](CO)[C@@H](O)[C@H](O)[C@@H]2O)NC(=O)[C@H](CCC(N)=O)NC(=O)[C@@H](N)[C@@H](C)O)CSSC[C@@H]2NC(=O)[C@H]([C@@H](C)O)NC(=O)[C@H]([C@@H](C)O)NC(=O)CNC(=O)[C@H](CO)NC(=O)[C@H](C)NC(=O)[C@H](CSSC[C@@H](C(=O)N[C@@H](CC(C)C)C(=O)O)NC(=O)[C@H](CCC(N)=O)NC(=O)[C@H](CO)NC(=O)[C@H](Cc3ccc(O)cc3)NC(=O)[C@H](Cc3ccc(O)cc3)NC(=O)[C@@H]3CCCN3C(=O)[C@H](CC(N)=O)NC(=O)[C@H](CC(C)C)NC(=O)[C@H](C(C)C)NC(=O)[C@H](CCC(N)=O)NC2=O)NC(=O)[C@H](C(C)C)NC(=O)[C@H]([C@@H](C)O)NC(=O)[C@@H]2CCCN2C(=O)CNC(=O)[C@H](CO)NC(=O)[C@H](Cc2ccc(O)cc2)NC(=O)CNC1=O [CBM variant 32] (H-TQS(X2)HAGQCGGIGYSGPTVCASGTTCQVLNPYYSQCL-OH; disulfide 8-25, 19-35)	1.2	6 ± 1.2
CC[C@H](C)[C@@H]1NC(=O)CNC(=O)CNC(=O)[C@@H](NC(=O)[C@H](CCC(N)=O)NC(=O)CNC(=O)[C@H](Cc2ccc(O)cc2)NC(=O)[C@H](Cc2c[nH]cn2)NC(=O)[C@H](CO[C@@H]2O[C@H](CO)[C@H](O)[C@H](O)[C@H]2O)NC(=O)[C@H](CCC(N)=O)NC(=O)[C@@H](N)[C@@H](C)O)CSSC[C@@H]2NC(=O)[C@H]([C@@H](C)O)NC(=O)[C@H]([C@@H](C)O)NC(=O)CNC(=O)[C@H](CO)NC(=O)[C@H](C)NC(=O)[C@H](CSSC[C@@H](C(=O)N[C@@H](CC(C)C)C(=O)O)NC(=O)[C@H](CCC(N)=O)NC(=O)[C@H](CO)NC(=O)[C@H](Cc3ccc(O)cc3)NC(=O)[C@H](Cc3ccc(O)cc3)NC(=O)[C@@H]3CCCN3C(=O)[C@H](CC(N)=O)NC(=O)[C@H](CC(C)C)NC(=O)[C@H](C(C)C)NC(=O)[C@H](CCC(N)=O)NC2=O)NC(=O)[C@H](C(C)C)NC(=O)[C@H]([C@@H](C)O)NC(=O)[C@@H]2CCCN2C(=O)CNC(=O)[C@H](CO)NC(=O)[C@H](Cc2ccc(O)cc2)NC(=O)CNC1=O [CBM variant 27] (H-TQS(βGal)HYGQCGGIGYSGPTVCASGTTCQVLNPYYSQCL-OH; disulfide 8-25, 19-35)	3.6	17.4 ± 1.2
CC[C@H](C)[C@@H]1NC(=O)CNC(=O)CNC(=O)[C@@H](NC(=O)[C@H](CCC(N)=O)NC(=O)CNC(=O)[C@H](Cc2ccc(O)cc2)NC(=O)[C@H](Cc2c[nH]cn2)NC(=O)[C@H](CO[C@H]2O[C@H](CO)[C@@H](O)[C@H](O)[C@@H]2O)NC(=O)[C@H](C)NC(=O)[C@@H](N)[C@@H](C)O)CSSC[C@@H]2NC(=O)[C@H]([C@@H](C)O)NC(=O)[C@H]([C@@H](C)O)NC(=O)CNC(=O)[C@H](CO)NC(=O)[C@H](C)NC(=O)[C@H](CSSC[C@@H](C(=O)N[C@@H](CC(C)C)C(=O)O)NC(=O)[C@H](CCC(N)=O)NC(=O)[C@H](CO)NC(=O)[C@H](Cc3ccc(O)cc3)NC(=O)[C@H](Cc3ccc(O)cc3)NC(=O)[C@@H]3CCCN3C(=O)[C@H](CC(N)=O)NC(=O)[C@H](CC(C)C)NC(=O)[C@H](C(C)C)NC(=O)[C@H](CCC(N)=O)NC2=O)NC(=O)[C@H](C(C)C)NC(=O)[C@H]([C@@H](C)O)NC(=O)[C@@H]2CCCN2C(=O)CNC(=O)[C@H](CO)NC(=O)[C@H](Cc2ccc(O)cc2)NC(=O)CNC1=O [CBM variant 7] (H-TAS(αMan)HYGQCGGIGYSGPTVCASGTTCQVLNPYYSQCL-OH; disulfide 8-25, 19-35)	6.6	16.2 ± 3
